Data taken from patent publication US20220136016A1, “MODIFIED CHLORAMPHENICOL […] AND BIOSYNTHESIS METHOD OF MAKING ESTERS USING SAME” (UNIVERSITY OF TENNESSEE RESEARCH FOUNDATION, priority 2020, published 2022).
Numbering of substitutions follows the chain as printed. Numbers in names are those of the source. Where two headings read alike, the source gives them in different places.

B1: CAT_GEO: wild type CAT, type A, Geomicrobium sp. (protein, listed as Geomicrobium sp.)
chain: MTFNPITLENWERKEYFNHYLNQQTTFSMTTDIEISSFKAAIKRKGYKFYPTFIYMVTEVINANESFRISFNEEGKLGYWEKLIPLYTVFDDQKQSFSNLWTDSTGNVLTFQEDYDRDVAEYNHIGGLFPKTPIPANTFPISMIPWNSFSGFNLNVGNGGNFLLPIITAGKYYSKGTATYLPVSLQVHHAVCDGYHAASFMNQLQELANTTNEWL
modifications: SITE (1)..(215) CAT_GEO, Type A
B2: CATec3 F97W Y20F: CATec3 with Y20F mutation in combination with F97W (protein, UniProt P00484 1-213, looked up, variant Y20F F97W)
Chloramphenicol …: MNYTKFDVKNWVRREHFEFFRHRLPCGFSLTSKIDITTLKKSLDDSAYKFYPVMIYLIAQAVNQFDELRMAIKDDELIVWDSVDPQFTVFHQETETWSALSCPYSSDIDQFMVNYLSVMERYKSDTKLFPQGVTPENHLNISALPWVNFDSFNLNVANFTDYFAPIITMAKYQQEGDRLLLPLSVQVHHAVCDGFHVARFINRLQELCNSKLK
B3: CATec3: wild type CAT, type A, Escherichia coli; expressed in strain HSCT2107 (protein, listed as Escherichia coli)
chain: B2 Chloramphenicol … with F20Y, W97F
modifications: SITE (1)..(213) CAT3_ECOLX, Type A
notes: wild type CAT, type A, Escherichia coli; expressed in strain HSCT2107
B4: CATec3 F97W: comparative CATec3 with F97W mutation (protein, UniProt P00484 1-213, looked up, variant F97W)
Chloramphenicol …: B2 Chloramphenicol … with F20Y

Legend:
[1] = biological target: CATec3 Y20F (Escherichia coli, UniProt P00484, Y20F); type: biochemical
[2] = Melting temperature (Tm) of purified His-tagged CATs; type: physicochemical; conditions: purified CAT
Procedure: To determine in vitro melting temperatures and catalytic efficiencies, His-tagged CATs were purified and characterized using know methods. In the 5,5′-dithiobis-2-nitrobenzoic acid (DTNB) assay, final enzyme concentrations of 0.05-0.1 μg/mL and 5-10 μg/mL were used for the reactions with chloramphenicol and alcohols, respectively. […] The enzyme reactions were held at 50° C. in a BioTek microplate reader for at least 30 minutes with measurements every one minute. The kinetic parameters were calculated using a non-linear regression method known to one of skill in the art.

[3] = CATec3 Y20F, 50° C., 2 mM acetyl-CoA, average±standard deviation

Molecule | Km [1, 3] [mM] | kcat [1, 3] [s⁻¹] | further results
COc1cccc(CO)c1 [3-Methoxybenzyl alcohol] | 10 ± 1.2 | 18.8 ± 0.9 | 
CC(C)CO [Isobutanol] |  | 2.3 ± 0.1 | 
CC(C)CCO [Isoamyl alcohol] | 59.9 ± 26.6 | 2.8 ± 0.3 | 
OCCc1ccccc1 [Phenylethyl alcohol] | 10.6 ± 0.4 | 6.1 ± 0.1 | 
CC(C)=CCO [Prenol] |  | 2.7 ± 0.3 | 
OCc1ccco1 [Furfuryl alcohol] | 37.1 ± 9.8 | 1.1 ± 0.1 | 
OCc1ccccc1 [Benzyl alcohol] | 12.2 ± 1.6 | 1.6 ± 0.1 | 
CC(C)=CCC/C(C)=C/CO [Geraniol] | 4.1 ± 0.4 | 8.0 ± 0.2 | 
CC(C)=CCC/C(C)=C\CO [Nerol] | 4.1 ± 0.8 | 2.2 ± 0.04 | 
CC/C=C\CCO [3-cis-Hexen-1-ol] |  | 2.3 ± 0.2 | Km ([1]; CATec3 Y20F, 50° C., 2 mM acetyl-CoA, average±standard deviation, read-out: KM): 6.4 ± 2.2 mM
CC(C)=CCCC(C)CCO (centres unmarked) [Citronellol] | 3.2 ± 0.3 | 7.7 ± 0.2 | 
CCCCCO [Pentanol] | 64.7 ± 33.6 | 3.9 ± 1.0 | 
O=C(N[C@H](CO)[C@H](O)c1ccc([N+](=O)[O-])cc1)C(Cl)Cl [Chloramphenicol] | 0.2 ± 0.05 | 105.5 ± 6.9 | 
CCO [Ethanol] |  | 0.8 ± 1.0 | 
CCCCCCO [Hexanol] | 29.2 ± 4 | 6.4 ± 0.4 | 
Butanol |  |  | kcat [1]: 1.9 ± 0.4 s⁻¹
B1 |  |  | melting temperature (Tm) [2]: 43.5 °C
B2 |  |  | melting temperature (Tm) [2]: 85.5 °C
B3 |  |  | melting temperature (Tm) [2]: 80.2 °C
B4 |  |  | melting temperature (Tm) [2]: 81.2 °C
